How the values were obtained:
Assay type in all cases: in vivo
weeds [1] = assay: Pre-emergence test; settings: cf. Tables A-1 to A-5
Experimental: (§1) Pre-emergence Test Solvent: 5 parts by weight of acetone Emulsifier: 1 part by weight of alkylaryl polyglycol ether To produce a suitable preparation of active compound, 1 part by weight of active compound is mixed with the stated amount of solvent, the stated amount of emulsifier is added and the concentrate is diluted with water to the desired concentration. Seeds of the test plants are sown in normal soil. After about 24 hours, the soil is sprayed with the preparation of the active compound in such a way as to apply the particular amounts of active compound desired per unit area The concentration of the spray liquor is chosen so that the particular amounts of active compound desired are applied in 1000 l of water/ha. After three weeks, the degree of damage to the plants is rated in % damage in comparison to the development of the untreated control. The figures denote: [table]

Matricaria [2] = assay: Pre-emergence test/greenhouse; settings: 125 g ai./ha, after three weeks
Experimental: as §1

Amaranthus [3] = assay: Pre-emergence test/greenhouse; settings: after three weeks
Experimental: as §1

Alopecurus [4] = assay: Pre-emergence test/greenhouse; settings: after three weeks
Experimental: as §1

Viola = assay: Pre-emergence test/greenhouse; settings: 125 g ai./ha, after three weeks
Experimental: as §1

Maize = assay: Pre-emergence test/greenhouse; settings: 125 g ai./ha, after three weeks
Experimental: as §1

Cotton = assay: Pre-emergence test/greenhouse; settings: after three weeks
Experimental: as §1

Chenopodium = assay: Pre-emergence test/greenhouse; settings: after three weeks
Experimental: as §1

Sorghum [5] = assay: Pre-emergence test/greenhouse; settings: 125 g ai./ha, after three weeks
Experimental: as §1

weeds [6] = assay: Post-emergence test; settings: cf. Tables B-1 to B-4
Experimental: as §1, with “Post-emergence” for “Pre-emergence”, “Test plants which have a height” for “Seeds”, “5-15 cm” for “the test plants”, “are” for “are sown in normal soil. After about 24 hours, the soil is”, “area.” for “area”

Wheat [7] = assay: Post-emergence test/greenhouse; settings: 60 g ai./ha, after three weeks
Experimental: as §1, with “Post-emergence” for “Pre-emergence”, “Test plants which have a height” for “Seeds”, “5-15 cm” for “the test plants”, “are” for “are sown in normal soil. After about 24 hours, the soil is”, “area.” for “area”

Ipomoea = assay: Post-emergence test/greenhouse; settings: 60 g ai./ha, after three weeks
Experimental: as §1, with “Post-emergence” for “Pre-emergence”, “Test plants which have a height” for “Seeds”, “5-15 cm” for “the test plants”, “are” for “are sown in normal soil. After about 24 hours, the soil is”, “area.” for “area”

Alopecurus [8] = assay: Post-emergence test/greenhouse; settings: 60 g ai./ha, after three weeks
Experimental: as §1, with “Post-emergence” for “Pre-emergence”, “Test plants which have a height” for “Seeds”, “5-15 cm” for “the test plants”, “are” for “are sown in normal soil. After about 24 hours, the soil is”, “area.” for “area”

Lolium [9] = assay: Post-emergence test/greenhouse; settings: 60 g ai./ha, after three weeks
Experimental: as §1, with “Post-emergence” for “Pre-emergence”, “Test plants which have a height” for “Seeds”, “5-15 cm” for “the test plants”, “are” for “are sown in normal soil. After about 24 hours, the soil is”, “area.” for “area”

Solanum [10] = assay: Post-emergence test/greenhouse; settings: 60 g ai./ha; for % damage, Solanum: post-emergence, after three weeks; for Solanum, % damage: Table B-4, post-emergence, rated after three weeks vs untreated control
Experimental: as §1, with “Post-emergence” for “Pre-emergence”, “Test plants which have a height” for “Seeds”, “5-15 cm” for “the test plants”, “are” for “are sown in normal soil. After about 24 hours, the soil is”, “area.” for “area”

Stellaria = assay: Post-emergence test/greenhouse; settings: 60 g ai./ha, after three weeks
Experimental: as §1, with “Post-emergence” for “Pre-emergence”, “Test plants which have a height” for “Seeds”, “5-15 cm” for “the test plants”, “are” for “are sown in normal soil. After about 24 hours, the soil is”, “area.” for “area”

Sorghum [11] = assay: Post-emergence test/greenhouse; settings: 60 g ai./ha; for Sorghum, % damage: Table B-4, post-emergence, rated after three weeks vs untreated control
Experimental: as §1, with “Post-emergence” for “Pre-emergence”, “Test plants which have a height” for “Seeds”, “5-15 cm” for “the test plants”, “are” for “are sown in normal soil. After about 24 hours, the soil is”, “area.” for “area”

Lolium [12] = assay: Pre-emergence test/greenhouse; settings: 125 g ai./ha, after three weeks
Experimental: as §1

Solanum [13] = assay: Pre-emergence test/greenhouse; settings: 125 g ai./ha, after three weeks
Experimental: as §1

Echinochloa [14] = assay: Post-emergence test/greenhouse; settings: Table B-4, post-emergence, 60 g ai./ha, rated after three weeks vs untreated control
Experimental: as §1, with “Emulsifier:” for “Pre-emergence Test Solvent: 5 parts by weight of acetone Emulsifier:”, “Test plants which have a height” for “Seeds”, “5-15 cm” for “the test plants”, “are” for “are sown in normal soil. After about 24 hours, the soil is”, “area.” for “area”, “control.” for “control. The figures denote: [table]”

Amaranthus [15] = assay: Post-emergence test/greenhouse; settings: 60 g ai./ha; for Amaranthus, % damage: Table B-4, post-emergence, rated after three weeks vs untreated control
Experimental: as §1, with “Post-emergence” for “Pre-emergence”, “Test plants which have a height” for “Seeds”, “5-15 cm” for “the test plants”, “are” for “are sown in normal soil. After about 24 hours, the soil is”, “area.” for “area”

Xanthium = assay: Post-emergence test/greenhouse; settings: 60 g ai./ha; for Xanthium, % damage: Table B-4, post-emergence, rated after three weeks vs untreated control
Experimental: as §1, with “Post-emergence” for “Pre-emergence”, “Test plants which have a height” for “Seeds”, “5-15 cm” for “the test plants”, “are” for “are sown in normal soil. After about 24 hours, the soil is”, “area.” for “area”

Wheat [16] = assay: Pre-emergence test/greenhouse; settings: after three weeks
Experimental: as §1

Bromus = assay: Pre-emergence test/greenhouse; settings: after three weeks
Experimental: as §1

Echinochloa [17] = assay: Pre-emergence test/greenhouse; settings: after three weeks
Experimental: as §1

Veronica = assay: Pre-emergence test/greenhouse; settings: after three weeks
Experimental: as §1

Matricaria [18] = assay: Post-emergence test/greenhouse; settings: 60 g ai./ha, after three weeks
Experimental: as §1, with “Post-emergence” for “Pre-emergence”, “Test plants which have a height” for “Seeds”, “5-15 cm” for “the test plants”, “are” for “are sown in normal soil. After about 24 hours, the soil is”, “area.” for “area”

[19] = post-emergence, after three weeks

| Structure (SMILES) | activity against weeds (weeds [1]) | % damage, Matricaria (Matricaria [2]) | % damage, Amaranthus (Amaranthus [3]; 125 g ai./ha) | % damage, Alopecurus (Alopecurus [4]; 125 g ai./ha) | % damage, Cotton (Cotton; 125 g ai./ha) | % damage, Chenopodium (Chenopodium; 125 g ai./ha) | % damage, Sorghum (Sorghum [5]) | activity against weeds (weeds [6]) | % damage, Wheat (Wheat [7]) | % damage, Solanum (Solanum [10]) | Echinochloa, % damage (Echinochloa [14]) | Amaranthus, % damage (Amaranthus [15]) | Solanum, % damage (Solanum [10]) | Sorghum, % damage (Sorghum [11]) | Xanthium, % damage (Xanthium) | further results |
| --- | --- | --- | --- | --- | --- | --- | --- | --- | --- | --- | --- | --- | --- | --- | --- | --- |
| COc1cccc(SC(C)C)c1S(=O)(=O)NC(=O)n1nc(OC)n(C)c1=O [Example 24] | very strong activity | 70% | 100% | 95% | 0% | 100% | 70% | very strong activity | 15% | 95% | – | – | – | – | – | % damage, Viola (Viola): 100%; % damage, Maize (Maize): 0%; % damage, Ipomoea (Ipomoea): 90%; % damage, Alopecurus (Alopecurus [8]): 90%; % damage, Lolium (Lolium [9]): 60%; % damage, Stellaria (Stellaria): 95%; % damage, Sorghum (Sorghum [11]; [19]): 90% |
| CCOc1nn(C(=O)NS(=O)(=O)c2c(OC)cccc2SCCF)c(=O)n1C [Example 59] | very strong activity | 100% | 100% | 100% | – | 100% | 100% | very strong activity | – | – | 100% | 100% | 90% | 100% | 95% | % damage, Lolium (Lolium [12]): 100%; % damage, Solanum (Solanum [13]): 100% |
| COc1nn(C(=O)NS(=O)(=O)c2c(SC)cccc2C(F)(F)F)c(=O)n1C [Example 61] | very strong activity | – | – | – | – | – | – | – | – | – | – | – | – | – | – | % damage, Wheat (Wheat [16]; 60 g ai./ha): 30%; % damage, Amaranthus (Amaranthus [3]; 60 g ai./ha): 100%; % damage, Alopecurus (Alopecurus [4]; 60 g ai./ha): 95%; % damage, Cotton (Cotton; 60 g ai./ha): 0%; % damage, Chenopodium (Chenopodium; 60 g ai./ha): 100%; % damage, Bromus (Bromus; 60 g ai./ha): 100%; % damage, Echinochloa (Echinochloa [17]; 60 g ai./ha): 100%; % damage, Veronica (Veronica; 60 g ai./ha): 80% |
| CCOc1nn(C(=O)NS(=O)(=O)c2c(SC(C)(C)C)cccc2C(F)(F)F)c(=O)n1C [Example 60] | very strong activity | – | 100% | 90% | 20% | 100% | – | – | – | – | – | – | – | – | – | % damage, Wheat (Wheat [16]; 125 g ai./ha): 0%; % damage, Bromus (Bromus; 125 g ai./ha): 95%; % damage, Echinochloa (Echinochloa [17]; 125 g ai./ha): 100%; % damage, Veronica (Veronica; 125 g ai./ha): 100% |
| CCSc1cccc(C)c1S(=O)(=O)NC(=O)n1nc(CC)n(C)c1=O [Example 55] | – | – | – | – | – | – | – | very strong activity | 20% | 90% | – | – | – | – | – | % damage, Matricaria (Matricaria [18]): 95%; % damage, Amaranthus (Amaranthus [15]; [19]): 95%; % damage, Xanthium (Xanthium; [19]): 100% |
| COc1nn(C(=O)NS(=O)(=O)c2c(SC)cccc2SC)c(=O)n1C [Example 50] | – | – | – | – | – | – | – | very strong activity | – | – | 80% | 95% | 95% | 95% | 95% | – |

— patent US6677277B1, “Substituted sulphonyl amino(thio)carbonyl compounds and their use as herbicides” (Bayer Aktiengesellschaft, priority 1996, dated 2004)
